In US20170347654A1, “Herbicidal Compounds” (SYNGENTA PARTICIPATIONS AG, priority 2014, published 2017):

What was measured:
Test in all cases: Post-emergence efficacy (glasshouse)
Type in all cases: in vivo
Settings in all cases: evaluated after 13 days
[1] = tested on: Amaranthus retoflexus (AMARE)
Procedure: (§1) Seeds of a variety of test species (such as, for example, Solanum nigrum (SOLNI), Amaranthus retoflexus (AMARE), Setaria faberi (SETFA), Echinochloa crusgalli (ECHCG), Ipomoea hederacea (IPOHE) and Lolium perenne (LOLPE)) are sown in standard soil in pots. After 8 days cultivation (post-emergence) under controlled conditions in a glasshouse (at 24/16° C., day/night; 14 hours light; 65% humidity), the plants are sprayed with an aqueous spray solution derived from the formulation of the technical active ingredient in acetone/water (50:50) solution containing 0.5% Tween 20 (polyoxyethylene sorbitan monolaurate, CAS RN 9005-64-5). Compounds are applied at 1000 and 62.5 g/ha. The test plants are then grown under controlled conditions in a glasshouse (at 24/16° C., day/night; 14 hours light; 65% humidity) and watered twice daily. After 13 days, the test is evaluated for the percentage damage caused to the plant. The biological activities are assessed on a five point scale (5=80-100%; 4=60-79%; 3=40-59%; 2=20-39%; 1=0-19%).

[2] = tested on: Echinochloa crusgalli (ECHCG)
Procedure: as §1

[3] = tested on: Ipomoea hederacea (IPOHE)
Procedure: as §1

Lolium perenne (LOLPE) = tested on: Lolium perenne (LOLPE)
Procedure: as §1

Setaria faberi (SETFA) = tested on: Setaria faberi (SETFA)
Procedure: as §1

Solanum nigrum (SOLNI) = tested on: Solanum nigrum (SOLNI)
Procedure: as §1

Structure (SMILES)	percentage damage caused to the plant, AMARE (five point scale) ([1]; 62.5 g/ha)	percentage damage caused to the plant, AMARE (five point scale) ([1]; 1000 g/ha)	percentage damage caused to the plant, ECHCG (five point scale) ([2]; 62.5 g/ha)	percentage damage caused to the plant, ECHCG (five point scale) ([2]; 1000 g/ha)	percentage damage caused to the plant, IPOHE (five point scale) ([3]; 62.5 g/ha)	percentage damage caused to the plant, IPOHE (five point scale) ([3]; 1000 g/ha)	percentage damage caused to the plant, LOLPE (five point scale) (Lolium perenne (LOLPE); 62.5 g/ha)	percentage damage caused to the plant, LOLPE (five point scale) (Lolium perenne (LOLPE); 1000 g/ha)	percentage damage caused to the plant, SETFA (five point scale) (Setaria faberi (SETFA); 62.5 g/ha)	percentage damage caused to the plant, SETFA (five point scale) (Setaria faberi (SETFA); 1000 g/ha)	percentage damage caused to the plant, SOLNI (five point scale) (Solanum nigrum (SOLNI); 62.5 g/ha)	percentage damage caused to the plant, SOLNI (five point scale) (Solanum nigrum (SOLNI); 1000 g/ha)
Cn1c(=O)c(-c2c(F)ccc(Cl)c2OCc2ccccc2)c(O)c2scnc21 [Compound 1.017]	4 (4=60-79%)	5 (5=80-100%)	2 (2=20-39%)	5 (5=80-100%)	5 (5=80-100%)	5 (5=80-100%)	4 (4=60-79%)	5 (5=80-100%)	1 (1=0-19%)	5 (5=80-100%)	5 (5=80-100%)	5 (5=80-100%)
Cn1c(=O)c(-c2c(C(F)(F)F)ccc(Cl)c2OCc2ccccc2)c(O)c2scnc21 [Compound 1.019]	4 (4=60-79%)	5 (5=80-100%)	3 (3=40-59%)	5 (5=80-100%)	5 (5=80-100%)	5 (5=80-100%)	3 (3=40-59%)	5 (5=80-100%)	3 (3=40-59%)	5 (5=80-100%)	5 (5=80-100%)	5 (5=80-100%)
O=c1c(-c2c(Cl)ccc(Cl)c2OCc2ccccc2)c(O)c2scnc2n1CC(F)F [Compound 1.021]	5 (5=80-100%)	5 (5=80-100%)	4 (4=60-79%)	5 (5=80-100%)	5 (5=80-100%)	5 (5=80-100%)	4 (4=60-79%)	5 (5=80-100%)	4 (4=60-79%)	5 (5=80-100%)	5 (5=80-100%)	5 (5=80-100%)
O=c1c(-c2c(F)ccc(Cl)c2OCc2ccccc2)c(O)c2scnc2n1CC(F)F [Compound 1.027]	5 (5=80-100%)	5 (5=80-100%)	3 (3=40-59%)	5 (5=80-100%)	5 (5=80-100%)	5 (5=80-100%)	4 (4=60-79%)	5 (5=80-100%)	3 (3=40-59%)	5 (5=80-100%)	5 (5=80-100%)	5 (5=80-100%)
O=c1c(-c2c(C(F)(F)F)ccc(Cl)c2OCc2ccccc2)c(O)c2scnc2n1CC(F)F [Compound 1.029]	4 (4=60-79%)	5 (5=80-100%)	3 (3=40-59%)	5 (5=80-100%)	4 (4=60-79%)	5 (5=80-100%)	2 (2=20-39%)	5 (5=80-100%)	2 (2=20-39%)	5 (5=80-100%)	5 (5=80-100%)	5 (5=80-100%)
